Our source for the melting point and Ki values is US8513232B2, “Substituted spirocyclic piperidine derivatives as histamine-3 (H3) receptor ligands” (Cephalon, Inc., priority 2008, dated 2013).

Molecules are shown by their SMILES. pKi: −log10 of the molar value.

Series [1] has as its target T1, rat histamine H3 receptor (Rattus norvegicus, UniProt Q9QYN8).
T1 construct: encoding the entire 445-amino-acid rat histamine H3 receptor; expressed in transfected cells; membrane preparation
In words: Rat H3 radioligand binding ([3H]-N-alpha-methylhistamine, SPA). The following applies: rat H3 binding, Table D; read-out: Rat H3 Ki. Put shortly: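 SPA-bead binding assay using [3H]-N-alpha-methylhistamine (approximately 1 nM final) with test compounds from 0.01 nM to 30 μM. Rat H3 receptor membranes came from stably transfected CHO-A3 cells; incubation ran 4 h at room temperature, in the dark, in Tris pH 7.4 buffer with MgCl2 and BSA. Clobenpropit (10 μM) gave non-specific binding.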

In series [2] the target is T2, human H3 receptor (Homo sapiens, UniProt Q9Y5N1).
T2 construct: expressed in transfected cells
In words: Human H3 radioligand binding ([3H]-N-alpha-methylhistamine, SPA). The following applies: human H3 binding, Table D; read-out: Human H3 Ki. The procedure, abridged:
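Compounds (0.01 nM-30 μM) competed with approximately 1 nM [3H]-N-alpha-methylhistamine for human H3 receptor in membranes of stably transfected CHO cells, 10 μg protein per well, in Tris-HCl pH 7.4/MgCl2/BSA buffer for 4 h at room temperature. Bound radioligand measured by scintillation proximity; 10 μM clobenpropit gave non-specific binding.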

T2 sequence (Q9Y5N1 whole entry): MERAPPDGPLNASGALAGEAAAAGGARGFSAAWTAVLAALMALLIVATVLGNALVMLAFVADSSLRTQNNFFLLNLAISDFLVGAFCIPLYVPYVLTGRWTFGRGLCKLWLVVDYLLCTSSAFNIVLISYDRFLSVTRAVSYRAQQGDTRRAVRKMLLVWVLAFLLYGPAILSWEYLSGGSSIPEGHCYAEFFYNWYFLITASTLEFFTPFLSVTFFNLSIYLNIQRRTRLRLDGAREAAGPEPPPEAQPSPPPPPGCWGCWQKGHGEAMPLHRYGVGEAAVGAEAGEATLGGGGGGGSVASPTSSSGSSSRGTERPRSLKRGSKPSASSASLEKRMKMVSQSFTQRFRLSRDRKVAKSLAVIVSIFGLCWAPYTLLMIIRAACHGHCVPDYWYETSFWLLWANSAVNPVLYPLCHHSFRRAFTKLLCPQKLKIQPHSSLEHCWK
T1 sequence (Q9QYN8 whole entry): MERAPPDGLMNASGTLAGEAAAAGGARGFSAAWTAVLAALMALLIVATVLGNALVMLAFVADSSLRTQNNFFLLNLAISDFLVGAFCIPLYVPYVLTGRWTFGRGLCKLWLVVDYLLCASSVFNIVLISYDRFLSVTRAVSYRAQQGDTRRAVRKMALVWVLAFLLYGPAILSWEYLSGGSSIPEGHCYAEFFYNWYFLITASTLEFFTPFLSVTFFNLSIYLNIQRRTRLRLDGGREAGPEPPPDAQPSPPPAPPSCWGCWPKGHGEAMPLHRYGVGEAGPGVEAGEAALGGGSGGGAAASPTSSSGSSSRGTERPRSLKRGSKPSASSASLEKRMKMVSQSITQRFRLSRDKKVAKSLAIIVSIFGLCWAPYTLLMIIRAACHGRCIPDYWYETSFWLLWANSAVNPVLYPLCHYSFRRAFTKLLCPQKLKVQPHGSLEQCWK

Broadly, the melting point is the temperature, or range, at which the solid turns liquid. A word on the pKi: it is −log10 of the Ki, conventionally taken in molar units. `O=c1ccc(-c2ccc3c(c2)COC2(CCN(C4CCC4)CC2)O3)cn1CC(F)(F)F` [Example 710] registered a melting point of 158 to 160 °C. For the same molecule, the pKi in series [1] is over 6.70. Moreover, in series [2], the pKi is over 6.70.
Molecule `COc1ccc(-c2ccc3c(c2)COC2(CCN(CCC4CCOCC4)CC2)O3)cn1` [Example 711] showed a melting point of 143 to 145 °C. The pKi in series [1] was under 6.00. In addition, in series [2], the pKi is under 6.00.
`COc1cc(C(N)=O)ccc1-c1ccc2c(c1)COC1(CCN(C3CCC3)CC1)O2` [Example 712] came in with a melting point of 122 to 124 °C. Besides, the pKi in series [1] is over 6.70. The pKi in series [2] is over 6.70.
`COc1ccc(-c2ccc3c(c2)COC2(CCN(C4COC4)CC2)O3)cn1` [Example 713] returned a melting point of 162 to 164 °C. Besides, in series [1], the pKi is under 6.00. The pKi in series [2] is 6.00 to 6.70.
With `COc1ncc(-c2ccc3c(c2)COC2(CCN(C4CCC4)CC2)O3)cc1F` [Example 714], the melting point fell in the range of 175 to 177 °C. For the same molecule, in series [1], the pKi is over 6.70. Moreover, in series [2], the negative-log Ki (pKi) is over 6.70.
In turn, `NC(=O)c1ccc(-c2ccc3c(c2)COC2(CCN(C4CCC4)CC2)O3)c(Cl)c1` [Example 715] showed a melting point of 112 to 114 °C. In addition, the pKi in series [1] is over 6.70. Moreover, in series [2], the pKi is over 6.70.
For the molecule `COc1ccc(-c2ccc3c(c2)COC2(CCN(CC4CCOCC4)CC2)O3)cn1` [Example 716], the melting point lay within 151 to 153 °C. In addition, the pKi in series [1] was under 6.00. In series [2], the pKi was under 6.00.
Molecule `COc1ccc(-c2ccc3c(c2)COC2(CCN(C4CC(CO)C4)CC2)O3)cn1` (stereo not drawn) [Example 717] returned a melting point of 123 to 125 °C. Further, the pKi in series [1] is 6.00 to 6.70. The pKi in series [2] was 6.00 to 6.70.
In turn, `O=c1ccc(-c2ccc3c(c2)COC2(CCN(C4COC4)CC2)O3)c[nH]1` [Example 718] registered a melting point of 262 to 264 °C. Also, the pKi in series [1] is under 6.00. Further, the pKi in series [2] is under 6.00.
For `CC(C)n1cc(-c2ccc3c(c2)COC2(CCN(C4CCC4)CC2)O3)ccc1=O` [Example 719], the melting point lay in the range of 176 to 177 °C. Further, the pKi in series [1] was over 6.70. Further, in series [2], the pKi is over 6.70.
For `O=c1ccc(-c2ccc3c(c2)COC2(CCN(C4CCC4)CC2)O3)cn1CCO` [Example 720], the melting point was in the range of 129 to 130 °C. The pKi in series [1] is over 6.70. In addition, in series [2], the pKi is over 6.70.
As to `O=c1ccc(-c2ccc3c(c2)COC2(CCN(CC4CCOCC4)CC2)O3)c[nH]1` [Example 722], the melting point lay in the range of 245 to 248 °C. The pKi in series [1] was under 6.00. In series [2], the pKi was 6.00 to 6.70.
As to `O=c1ccc(-c2ccc3c(c2)COC2(CCN(C4CCOCC4)CC2)O3)c[nH]1` [Example 723], the melting point lay within 230 to 232 °C. In addition, the pKi in series [1] is over 6.70. Moreover, the pKi in series [2] was over 6.70.
The molecule `COc1ccc(-c2ccc3c(c2)COC2(CCN(C4CCOC4)CC2)O3)cn1` (stereo not drawn) [Example 725] showed a melting point of 139 to 141 °C. Further, the pKi in series [1] was 6.00 to 6.70. Also, the pKi in series [2] is 6.00 to 6.70.
As for `COc1ccc(-c2ccc3c(c2)COC2(CCN(C4CCC4)CC2)O3)c(C)n1` [Example 726], the melting point fell in the range of 131 to 133 °C. Further, the pKi in series [1] was over 6.70. For the same molecule, the pKi in series [2] was over 6.70.
Molecule `O=c1[nH]cc(-c2ccc3c(c2)COC2(CCN(C4CCC4)CC2)O3)cc1F` [Example 727] had a melting point of 200 to 202 °C. In addition, the pKi in series [1] was over 6.70. Also, the pKi in series [2] is over 6.70.
`CCSc1cc(-c2ccc3c(c2)COC2(CCN(C4CCC4)CC2)O3)c[nH]c1=O` [Example 728] yielded a melting point of 241 to 243 °C. For the same molecule, the negative-log Ki (pKi) in series [1] was over 6.70. Moreover, the pKi in series [2] is over 6.70.
`O=c1ccc(-c2ccc3c(c2)COC2(CCN(C4CCOC4)CC2)O3)c[nH]1` (stereo not drawn) [Example 729] came in with a melting point of 222 to 226 °C. Also, in series [1], the pKi is 6.00 to 6.70. Further, the pKi in series [2] was 6.00 to 6.70.
The molecule `c1cc(-c2ccc3c(c2)COC2(CCN(C4CCC4)CC2)O3)[nH]n1` [Example 730] displayed a melting point of 140 to 141 °C. The pKi in series [1] was over 6.70. Besides, the pKi in series [2] was over 6.70.
As to `Cc1cnc(-c2ccc3c(c2)COC2(CCN(C4CCC4)CC2)O3)c(C)n1` [Example 731], the melting point was in the range of 224 to 225 °C. Moreover, in series [1], the negative logarithm of the Ki (pKi) was over 6.70. The pKi in series [2] is over 6.70.
As to `COc1ccc(-c2ccc3c(c2)COC2(CCN(C(C)(C)C)CC2)O3)cn1` [Example 732], the melting point fell in the range of 152 to 154 °C. Further, in series [1], the pKi is over 6.70. Further, the pKi in series [2] was over 6.70.
Molecule `CC(C)(C)N1CCC2(CC1)OCc1cc(-c3ccc(=O)[nH]c3)ccc1O2` [Example 733] yielded a melting point of 241 to 243 °C. The negative logarithm of the Ki (pKi) in series [1] is over 6.70. Further, the pKi in series [2] was over 6.70.
`COc1ccc(-c2ccc3c(c2)COC2(CCN(C4CC(C(=O)O)C4)CC2)O3)cn1` (stereo not drawn) [Example 734] registered a melting point of 260 to 262 °C. For the same molecule, in series [1], the pKi was under 6.00. Also, the pKi in series [2] is under 6.00.
`CN(C)C(=O)C1CC(N2CCC3(CC2)OCc2cc(-c4ccc(=O)[nH]c4)ccc2O3)C1` (stereo not drawn) [Example 735] yielded a melting point of 247 to 249 °C. Moreover, in series [1], the pKi was under 6.00. The pKi in series [2] is under 6.00.
Take `Cc1[nH]c(=O)ccc1-c1ccc2c(c1)COC1(CCN(C3CCC3)CC1)O2` [Example 736]: the melting point is 191 to 193 °C. Also, the pKi in series [1] is over 6.70. Besides, the pKi in series [2] was over 6.70.
With `O=c1ccc(-c2ccc3c(c2)COC2(CCN(C4CCC4)CC2)O3)cn1C(F)F` [Example 737], the melting point fell in the range of 125 to 127 °C. Also, the pKi in series [1] is over 6.70. Further, in series [2], the pKi was over 6.70.
The molecule `Cc1noc(C)c1C(=O)N1CCN(c2ccc3c(c2)COC2(CCN(C4CCC4)CC2)O3)C(=O)C1` [Example 738] yielded a melting point of 103 to 106 °C. Moreover, the pKi in series [1] was over 6.70. In addition, in series [2], the pKi is over 6.70.
On to `CCC(=O)N1CCN(c2ccc3c(c2)COC2(CCN(C4CCC4)CC2)O3)C(=O)C1` [Example 739], for which the melting point lay within 146 to 148 °C. Further, the pKi in series [1] is over 6.70. In addition, the pKi in series [2] is over 6.70.
The molecule `Cn1nccc1-c1ccc2c(c1)COC1(CCN(C3CCC3)CC1)O2` [Example 740] came in with a melting point of 107 to 109 °C. Moreover, in series [1], the pKi was over 6.70. In addition, the pKi in series [2] was over 6.70.
`COc1cc(-c2ccc3c(c2)COC2(CCN(C4CCC4)CC2)O3)ccc1C(N)=O` [Example 742]: the melting point fell in the range of 212 to 214 °C. Moreover, in series [1], the pKi was over 6.70. In series [2], the pKi is over 6.70.
Turning to `NC(=O)c1ccc(-c2ccc3c(c2)COC2(CCN(C4CCC4)CC2)O3)cc1O` [Example 743], the melting point fell in the range of 267 to 269 °C. Also, in series [1], the pKi is over 6.70. Also, the pKi in series [2] is over 6.70.
For the molecule `Cc1ncccc1-c1ccc2c(c1)COC1(CCN(C3CCC3)CC1)O2` [Example 744], the melting point was 197 to 199 °C. Also, the pKi in series [1] was over 6.70. Further, the pKi in series [2] is over 6.70.
`Cc1ccncc1-c1ccc2c(c1)COC1(CCN(C3CCC3)CC1)O2` [Example 745] had a melting point of 200 to 202 °C. Further, the pKi in series [1] is over 6.70. Further, in series [2], the pKi was over 6.70.
Molecule `COc1nc(C)ccc1-c1ccc2c(c1)COC1(CCN(C3CCC3)CC1)O2` [Example 746] gave a melting point of 61 to 63 °C. Also, the pKi in series [1] was over 6.70. Also, the pKi in series [2] was over 6.70.
As to `COc1ncccc1-c1ccc2c(c1)COC1(CCN(C3CCC3)CC1)O2` [Example 747], the melting point lay in the range of 210 to 212 °C. The pKi in series [1] was over 6.70. The pKi in series [2] is over 6.70.
Molecule `Cc1ccc(-c2ccc3c(c2)COC2(CCN(C4CCC4)CC2)O3)c(C)n1` [Example 748] yielded a melting point of 190 to 192 °C. The pKi in series [1] is over 6.70. The pKi in series [2] was over 6.70.
For the molecule `COc1ccncc1-c1ccc2c(c1)COC1(CCN(C3CCC3)CC1)O2` [Example 749], the melting point lay in the range of 58 to 60 °C. For the same molecule, the negative-log Ki (pKi) in series [1] is over 6.70. In addition, the pKi in series [2] is over 6.70.
Molecule `c1cc2c(cc1-c1cn[nH]c1)COC1(CCN(C3CCC3)CC1)O2` [Example 750] registered a melting point of 205 to 207 °C. In addition, in series [1], the pKi is over 6.70. Moreover, in series [2], the pKi was over 6.70.
Take `Cc1cc(C(N)=O)cc(C)c1-c1ccc2c(c1)COC1(CCN(C3CCC3)CC1)O2` [Example 751]: the melting point lay in the range of 156 to 158 °C. Moreover, the pKi in series [1] is over 6.70. Also, the pKi in series [2] is over 6.70.
`Cc1cnc(C)c(-c2ccc3c(c2)COC2(CCN(C4CCC4)CC2)O3)n1` [Example 752] showed a melting point of 102 to 103 °C. The pKi in series [1] is over 6.70. In series [2], the pKi is over 6.70.
In turn, `FC(F)(F)c1ncccc1-c1ccc2c(c1)COC1(CCN(C3CCC3)CC1)O2` [Example 753] returned a melting point of 190 to 192 °C. The pKi in series [1] was 6.00 to 6.70. Further, the pKi in series [2] was 6.00 to 6.70.
`COc1cc(-c2ccc3c(c2)COC2(CCN(C4CCC4)CC2)O3)c(F)cn1` [Example 754]: the melting point is 135 to 136 °C. The pKi in series [1] was over 6.70. The negative-log Ki (pKi) in series [2] was over 6.70.
